In the supplement of paper PMC6045584:

How the values were obtained:
Assay in all cases: area under dose-response curve of surviving fraction (unscaled, Aref=0) (surviving fraction x log10(nM)); higher = more resistant
Details in all cases: exposure time: 5 days; dose range 0.5-1000 nM
FORETINIB = compound: COc1cc2c(Oc3ccc(NC(=O)C4(C(=O)Nc5ccc(F)cc5)CC4)cc3F)ccnc2cc1OCCCN1CCOCC1 [FORETINIB]
How it was run: (§1)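 Inhibitor was applied to tumour cell lines at eight concentrations (0.5 to 1000 nM) for five days in 384-well plates. Luminescence from CellTiter-Glo, scaled to DMSO-only wells, gave surviving fractions in three screens per line, and these were fitted by 3-parameter logistic regression with the drc R package. The area under the curve is an unscaled activity area. Aref was 0, and dose was on a log10 scale.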

SOTRASTAURIN/AEB071 = compound: CN1CCN(c2nc(C3=C(c4c[nH]c5ccccc45)C(=O)NC3=O)c3ccccc3n2)CC1 [SOTRASTAURIN/AEB071]
How it was run: as §1

[1] = compound: C[C@@H](Oc1cc(-c2cnn(C3CCNCC3)c2)cnc1N)c1c(Cl)ccc(F)c1Cl
How it was run: as §1

[2] = compound: CCn1c(C(=O)N(C2CC2)C2CC2)cc2c3c(ncn3C)c(Nc3cc(C)n(C)n3)nc21
How it was run: as §1

CRIZOTINIB = compound: C[C@@H](Oc1cc(-c2cnn(C3CCNCC3)c2)cnc1N)c1c(Cl)ccc(F)c1Cl [CRIZOTINIB]
How it was run: as §1

[3] = compound: CNCc1ccc(-c2[nH]c3cc(F)cc4c3c2CCNC4=O)cc1
How it was run: as §1

[4] = compound: COc1cc2ncnc(Nc3ccc(F)c(Cl)c3)c2cc1NC(=O)/C=C/CN1CCCCC1
How it was run: as §1

SORAFENIB = compound: CNC(=O)c1cc(Oc2ccc(NC(=O)Nc3ccc(Cl)c(C(F)(F)F)c3)cc2)ccn1 [SORAFENIB]
How it was run: as §1

TEMOZOLOMIDE = compound: Cn1nnc2c(C(N)=O)ncn2c1=O [TEMOZOLOMIDE]
How it was run: as §1

XAV-939 = compound: Oc1nc(-c2ccc(C(F)(F)F)cc2)nc2c1CSCC2 [XAV-939]
How it was run: as §1

DASATINIB = compound: Cc1nc(Nc2ncc(C(=O)Nc3c(C)cccc3Cl)s2)cc(N2CCN(CCO)CC2)n1 [DASATINIB]
How it was run: as §1

MLN-4924 = compound: NS(=O)(=O)OC[C@@H]1C[C@@H](n2ccc3c(N[C@H]4CCc5ccccc54)ncnc32)C[C@@H]1O [MLN-4924]
How it was run: as §1

ABIRATERONE = compound: C[C@]12CC[C@H](O)CC1=CC[C@@H]1[C@@H]2CC[C@]2(C)C(c3cccnc3)=CC[C@@H]12 [ABIRATERONE]
How it was run: as §1

OLAPARIB = compound: O=C(c1cc(Cc2n[nH]c(=O)c3ccccc23)ccc1F)N1CCN(C(=O)C2CC2)CC1 [OLAPARIB]
How it was run: as §1

Test System	area under dose-response curve (FORETINIB)	area under dose-response curve (SOTRASTAURIN/AEB071)	area under dose-response curve [1]	area under dose-response curve [2]	area under dose-response curve (CRIZOTINIB)	area under dose-response curve [3]	area under dose-response curve [4]	area under dose-response curve (SORAFENIB)	area under dose-response curve (TEMOZOLOMIDE)	area under dose-response curve (XAV-939)	area under dose-response curve (DASATINIB)	area under dose-response curve (MLN-4924)	area under dose-response curve (ABIRATERONE)	area under dose-response curve (OLAPARIB)
93VU HEADNECK	3.15	3.06	3.15	3.21	3.62	3.13	1.8	3.6	3.5	3.51	1.68	2.42	3.9	
143B BONE			3.2	3.44			3.27	3.46					3.51	3.36
ASKA SYNOVIAL	2.97	3.57	1.91	3.49	2.02	2.86		3.67	3.76	3.73	3.09	2.57	3.92	
BT20 BREAST	2.97	3.14	2.71	3.56		3.01	3.27		3.53	3.66	2.46		3.73	2.92
BT549 BREAST	3.09	3.27	3.16	3.29	3.2	3	3.07	3.65	3.71		1.74	2.41		2.76
C33A CERVIX	3.09	3.68	3.07	3.14	3.26	3.29	2.14	3.69	3.18	3.08	1.29	2.13		
CAL72 BONE	3.09	3.55	3.32	3.63		3.26	3.26	3.59	3.47	3.18	1.77	2.83	3.67	3.24
CHLA90 AUTONOMIC GANGLIA	3	3.28	2.61	3.14	3.12	3.28	2.74	3.78	3.2	3.24	2.41		3.47	
CME SYNOVIAL		4.01	3.05	4.04		2.5	4.38	4.2	4.38	4.09	2.06	2.38	4.4	2.56
DU4475 BREAST	2.98		2.23	2.83	2.9	2.68			3.12		2.37	1.46	3.18	
HCC202 BREAST			4.02	4.17			1.81						3.88	2.74
HCC1395 BREAST		3.61	3.01	3.71	4.21	2.92	3.19	3.88	3.46	2.87	2.59	3.56	3.7	3.21
HCC1806 BREAST		3.26	2.87	3.46	3.08	2.77	2.42	3.16	3.62	3.59	1.53	1.35	3.71	2.84
HCC1954 BREAST		2.92	1.37	2.83		2.54	1.98	3.17	3.75	3.2	0.867	2.34		3.08
HCT15 LARGE INTESTINE	2.87	3.44	3.17	3.26	3.26	3.36		3.39	3.41	3.27	2.15	2.78	3.64	
HU09 BONE	2.28		2.79	3.49	3.03	3.06	3.08	2.68	3.28		1.76	2.59	3.7	
HUO3N1 BONE	2.9	3.24	3.14			3.19	3.17	3.13	3.36		1.45	3.13	3.47	3.21
JURKAT HAEMATOPOIETIC AND LYMPHOID TISSUE	3.02	3.54	2.75	3.54	2.68	3.28	3.18	3.55		3.29	2.79	1.92	3.49	
MDAMB134 BREAST		2.77	2.51	3.44		2.86		3.71	3.51	3.4	2.13	2.2	3.48	3.02
MDAMB453 BREAST		3.19	3.17	3.37		3.18	3.06	3.59	3.62	3.47	3.37	2.43	3.51	3.22
MDAMB468 BREAST		3.12	3.05	3.4	3.08	2.75	2.43	3.82	3.67		2.57	2.17	3.46	2.89
MG63 BONE	2.87	3.44	2.86	3.25		3.36	3.25	3.52	3.4	3.05	1.88	2.01		3.26
